From PubChem BioAssay AID248 (DTP/NCI, 2004)
Values joined by “and” are separate entries in the source; they are usually repeats but may differ in a detail not shown here. Equal values may be shown once. Toxic doses and inconclusive results are not listed. Cut-off read from the data, not from the text of the source: active = T/C of 150% or more; inactive = T/C below 125%.

Tested on: L1210 leukemia ip in BDF1 mice, survival T/C
Assay: NCI In Vivo Anticancer Drug Screen. Data for tumor model L1210 Leukemia (intraperitoneal) in B6D2F1 (BDF1) mice
Details: endpoint: mean survival time, higher = longer survival
Summary of the method: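 In this screen, tumor-bearing mice given compound are compared to those given vehicle, and their survival values are reported as a treated-to-control quotient.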

[1] = dose: 100.0 mg/kg/injection, schedule: Q01DX001 (ip), vehicle: carboxymethylcellulose (CMC)
[2] = dose: 200.0 mg/kg/injection, schedule: Q01DX001 (ip), vehicle: carboxymethylcellulose (CMC)
[3] = dose: 400.0 mg/kg/injection, schedule: Q01DX001 (ip), vehicle: carboxymethylcellulose (CMC)
[4] = dose: 100.0 mg/kg/injection, schedule: Q04DX003 (ip), vehicle: saline
[5] = dose: 200.0 mg/kg/injection, schedule: Q04DX003 (ip), vehicle: saline
[6] = dose: 400.0 mg/kg/injection, schedule: Q04DX003 (ip), vehicle: saline
[7] = dose: 100.0 mg/kg/injection, schedule: Q01DX001 (ip), vehicle: saline
[8] = dose: 200.0 mg/kg/injection, schedule: Q01DX001 (ip), vehicle: saline
[9] = dose: 400.0 mg/kg/injection, schedule: Q01DX001 (ip), vehicle: saline
[10] = dose: 50.0 mg/kg/injection, schedule: Q01DX001 (ip), vehicle: carboxymethylcellulose (CMC)
[11] = dose: 75.0 mg/kg/injection, schedule: Q01DX001 (ip), vehicle: saline
[12] = dose: 150.0 mg/kg/injection, schedule: Q01DX001 (ip), vehicle: saline
[13] = dose: 300.0 mg/kg/injection, schedule: Q01DX001 (ip), vehicle: saline

Measured: T/C

Nc1ccccc1SC(CC(=O)c1ccc(-c2ccccc2)cc1)c1ccco1 (stereo not drawn)
inactive: dose: 100.0 mg/kg/injection, schedule: Q01DX009 (ip), vehicle: saline with Tween-80 94 % of control | dose: 100.0 mg/kg/injection, schedule: Q04DX002 (ip), vehicle: saline with Tween-80 105 % of control | dose: 200.0 mg/kg/injection, schedule: Q01DX009 (ip), vehicle: saline with Tween-80 91 % of control | dose: 200.0 mg/kg/injection, schedule: Q04DX002 (ip), vehicle: saline with Tween-80 102 % of control | dose: 400.0 mg/kg/injection, schedule: Q01DX009 (ip), vehicle: saline with Tween-80 91 % of control | dose: 400.0 mg/kg/injection, schedule: Q04DX002 (ip), vehicle: saline with Tween-80 91 % of control

COc1ccc(C(=O)c2ccc3ccccc3c2)cc1
inactive: [1] 92 % of control | [2] 92 % of control | [3] 94 % of control

Nc1ccc(-c2ccc(N)c(Cl)c2)cc1Cl
inactive: [4] 100 % of control | [5] 103 % of control | [6] 91 % of control

COC1OC(COC(=O)c2ccc([N+](=O)[O-])cc2)C2OC12 (stereo not drawn)
inactive: [1] 100 % of control | [7] 101 % of control | [2] 95 % of control | [8] 101 % of control and 109 % of control | [3] 89 % of control | [9] 101 % of control

CCOC(=O)NC1C2CC3C(C2)C31 (stereo not drawn)
inactive: [10] 107 % of control | [1] 103 % of control | [2] 101 % of control | [3] 109 % of control

CCCC(C)C1(CCC)C(=O)NC(=S)NC1=O (stereo not drawn)
inactive: [11] 94 % of control | [12] 98 % of control | [13] 92 % of control

O=C(OC(C(=O)O)C(OC(=O)c1ccccc1)C(=O)O)c1ccccc1 (stereo not drawn) (tested in a mixture with another compound)
inactive: dose: 15.0 mg/kg/injection, schedule: Q01DX001 (ip), vehicle: carboxymethylcellulose (CMC) 102 % of control | dose: 100.0 mg/kg/injection, schedule: Q01DX001 (ip), vehicle: other 109 % of control | dose: 200.0 mg/kg/injection, schedule: Q01DX001 (ip), vehicle: other 102 % of control | dose: 400.0 mg/kg/injection, schedule: Q01DX001 (ip), vehicle: other 109 % of control

CCOC(=O)c1ccc(NC(=O)N(C)N=O)cc1
inactive: dose: 75.0 mg/kg/injection, schedule: Q01DX001 (ip), vehicle: carboxymethylcellulose (CMC) 121 % of control

Cc1ccc(S(=O)(=O)N(c2ccccc2-c2ccccc2)C(C)C(=O)O)cc1 (stereo not drawn)
inactive: [7] 98 % of control | [8] 103 % of control | [9] 102 % of control

O=C(O)CCCN1C(=O)CCC1=O
inactive: [4] 97 % of control | [5] 95 % of control | [6] 106 % of control

Nc1nc(SCc2ccccn2)c2ncn(C3OC(CO)C(O)C3O)c2n1 (stereo not drawn)
inactive: dose: 6.25 mg/kg/injection, schedule: Q01DX Z (ip), vehicle: methylcellulose (MC) 106 % of control | dose: 12.5 mg/kg/injection, schedule: Q01DX Z (ip), vehicle: methylcellulose (MC) 104 % of control | dose: 25.0 mg/kg/injection, schedule: Q01DX Z (ip), vehicle: methylcellulose (MC) 112 % of control

C=CCc1ccc(OCC(N)=O)c(OC)c1
inactive: dose: 100.0 mg/kg/injection, schedule: Q04DX003 (ip), vehicle: saline with Tween-80 107 % of control | dose: 200.0 mg/kg/injection, schedule: Q04DX003 (ip), vehicle: saline with Tween-80 107 % of control | dose: 400.0 mg/kg/injection, schedule: Q04DX003 (ip), vehicle: saline with Tween-80 109 % of control

CC(=O)Oc1c2sccc2cc2ccsc12
inactive: dose: 100.0 mg/kg/injection, schedule: Q01DX001 (ip), vehicle: saline with Tween-80 97 % of control | dose: 200.0 mg/kg/injection, schedule: Q01DX001 (ip), vehicle: saline with Tween-80 92 % of control | dose: 400.0 mg/kg/injection, schedule: Q01DX001 (ip), vehicle: saline with Tween-80 92 % of control

CC(C)CC(CC(C)C)NCC(C)OC(=O)c1ccc([N+](=O)[O-])cc1 (stereo not drawn)
inactive: dose: 100.0 mg/kg/injection, schedule: Q01DX009 (ip), vehicle: water 93 % of control | dose: 100.0 mg/kg/injection, schedule: Q04DX003 (ip), vehicle: water 98 % of control | dose: 200.0 mg/kg/injection, schedule: Q01DX009 (ip), vehicle: water 88 % of control | dose: 200.0 mg/kg/injection, schedule: Q04DX003 (ip), vehicle: water 98 % of control | dose: 400.0 mg/kg/injection, schedule: Q01DX009 (ip), vehicle: water 86 % of control | dose: 400.0 mg/kg/injection, schedule: Q04DX003 (ip), vehicle: water 96 % of control

O=C(OC1(c2ccccc2)CC2CC1c1ccccc12)c1ccc([N+](=O)[O-])cc1 (stereo not drawn)
inactive: [10] 88 % of control | [1] 95 % of control | [2] 95 % of control

CC1=COC(C)(C(=O)O)CC1 (stereo not drawn)
inactive: dose: 55.0 mg/kg/injection, schedule: Q01DX Z (ip), vehicle: methylcellulose (MC) 100 % of control | dose: 83.0 mg/kg/injection, schedule: Q01DX Z (ip), vehicle: methylcellulose (MC) 86 % of control | dose: 125.0 mg/kg/injection, schedule: Q01DX Z (ip), vehicle: methylcellulose (MC) 102 % of control

O=C1C(OC(=O)c2ccccc2)=C(c2ccc(O)cc2)C(=O)C(OC(=O)c2ccccc2)=C1c1ccc(O)cc1
inactive: dose: 12.5 mg/kg/injection, schedule: Q01DX Z (ip), vehicle: carboxymethylcellulose (CMC) 94 % of control | dose: 25.0 mg/kg/injection, schedule: Q01DX Z (ip), vehicle: carboxymethylcellulose (CMC) 94 % of control | dose: 50.0 mg/kg/injection, schedule: Q01DX Z (ip), vehicle: carboxymethylcellulose (CMC) 105 % of control | dose: 100.0 mg/kg/injection, schedule: Q01DX Z (ip), vehicle: carboxymethylcellulose (CMC) 102 % of control

CCCCCCCCCCCCCCCCCCN1CNC(=O)NC1
inactive: dose: 100.0 mg/kg/injection, schedule: Q04DX003 (ip), vehicle: Klucel (hydroxypropylcellulose) (HPC) 93 % of control | dose: 200.0 mg/kg/injection, schedule: Q04DX003 (ip), vehicle: Klucel (hydroxypropylcellulose) (HPC) 101 % of control

O=C(O)CC(O)c1ccccc1 (stereo not drawn)
inactive: [11] 109 % of control | [12] 93 % of control | [13] 112 % of control

CCC1(CCCCCCC(=O)CC(C)=O)OCCO1
inactive: dose: 100.0 mg/kg/injection, schedule: Q01DX009 (ip), vehicle: Klucel (hydroxypropylcellulose) (HPC) 105 % of control | dose: 200.0 mg/kg/injection, schedule: Q01DX009 (ip), vehicle: Klucel (hydroxypropylcellulose) (HPC) 104 % of control | dose: 400.0 mg/kg/injection, schedule: Q01DX009 (ip), vehicle: Klucel (hydroxypropylcellulose) (HPC) 91 % of control

CCCCCC(O)C(O)CC(O)C(O)CCCCCCCC(=O)O (stereo not drawn)
inactive: [7] 89 % of control | [8] 105 % of control | [9] 96 % of control

O=C1NS(=O)(=O)CS(=O)(=O)N1
inactive: [7] 108 % of control | [8] 104 % of control | [9] 101 % of control

Cn1cnc([N+](=O)[O-])c1Sc1ncnc2c1ncn2C1OC(CO)C(O)C1O (stereo not drawn)
inactive: dose: 18.0 mg/kg/injection, schedule: Q01DX009 (ip), vehicle: saline 100 % of control | dose: 35.0 mg/kg/injection, schedule: Q01DX009 (ip), vehicle: saline 108 % of control | dose: 75.0 mg/kg/injection, schedule: Q04DX003 (ip), vehicle: Klucel (hydroxypropylcellulose) (HPC) 121 % of control
active: dose: 110.0 mg/kg/injection, schedule: Q01DX009 (ip), vehicle: saline 152 % of control | dose: 165.0 mg/kg/injection, schedule: Q01DX009 (ip), vehicle: saline 150 % of control | dose: 176.0 mg/kg/injection, schedule: Q01DX009 (ip), vehicle: other 164 % of control | dose: 250.0 mg/kg/injection, schedule: Q01DX009 (ip), vehicle: saline 154 % of control | dose: 300.0 mg/kg/injection, schedule: Q04DX003 (ip), vehicle: Klucel (hydroxypropylcellulose) (HPC) 156 % of control

CC(C)c1ccc(C(C2C(=O)CC(C)(C)CC2=O)C2C(=O)CC(C)(C)CC2=O)cc1
inactive: [7] 103 % of control | [8] 109 % of control | [9] 107 % of control

Clc1ccc(Cl)c(OCC2=NCCN2)c1
inactive: dose: 20.0 mg/kg/injection, schedule: Q04DX003 (ip), vehicle: Klucel (hydroxypropylcellulose) (HPC) 102 % of control | dose: 40.0 mg/kg/injection, schedule: Q04DX003 (ip), vehicle: Klucel (hydroxypropylcellulose) (HPC) 101 % of control
